In this test the target is T1, human recombinant mGluR5 (Homo sapiens, UniProt P41594).
T1 construct: expressed in transfected cells; host or cells: HEK 293
T1 sequence (P41594 21-1212): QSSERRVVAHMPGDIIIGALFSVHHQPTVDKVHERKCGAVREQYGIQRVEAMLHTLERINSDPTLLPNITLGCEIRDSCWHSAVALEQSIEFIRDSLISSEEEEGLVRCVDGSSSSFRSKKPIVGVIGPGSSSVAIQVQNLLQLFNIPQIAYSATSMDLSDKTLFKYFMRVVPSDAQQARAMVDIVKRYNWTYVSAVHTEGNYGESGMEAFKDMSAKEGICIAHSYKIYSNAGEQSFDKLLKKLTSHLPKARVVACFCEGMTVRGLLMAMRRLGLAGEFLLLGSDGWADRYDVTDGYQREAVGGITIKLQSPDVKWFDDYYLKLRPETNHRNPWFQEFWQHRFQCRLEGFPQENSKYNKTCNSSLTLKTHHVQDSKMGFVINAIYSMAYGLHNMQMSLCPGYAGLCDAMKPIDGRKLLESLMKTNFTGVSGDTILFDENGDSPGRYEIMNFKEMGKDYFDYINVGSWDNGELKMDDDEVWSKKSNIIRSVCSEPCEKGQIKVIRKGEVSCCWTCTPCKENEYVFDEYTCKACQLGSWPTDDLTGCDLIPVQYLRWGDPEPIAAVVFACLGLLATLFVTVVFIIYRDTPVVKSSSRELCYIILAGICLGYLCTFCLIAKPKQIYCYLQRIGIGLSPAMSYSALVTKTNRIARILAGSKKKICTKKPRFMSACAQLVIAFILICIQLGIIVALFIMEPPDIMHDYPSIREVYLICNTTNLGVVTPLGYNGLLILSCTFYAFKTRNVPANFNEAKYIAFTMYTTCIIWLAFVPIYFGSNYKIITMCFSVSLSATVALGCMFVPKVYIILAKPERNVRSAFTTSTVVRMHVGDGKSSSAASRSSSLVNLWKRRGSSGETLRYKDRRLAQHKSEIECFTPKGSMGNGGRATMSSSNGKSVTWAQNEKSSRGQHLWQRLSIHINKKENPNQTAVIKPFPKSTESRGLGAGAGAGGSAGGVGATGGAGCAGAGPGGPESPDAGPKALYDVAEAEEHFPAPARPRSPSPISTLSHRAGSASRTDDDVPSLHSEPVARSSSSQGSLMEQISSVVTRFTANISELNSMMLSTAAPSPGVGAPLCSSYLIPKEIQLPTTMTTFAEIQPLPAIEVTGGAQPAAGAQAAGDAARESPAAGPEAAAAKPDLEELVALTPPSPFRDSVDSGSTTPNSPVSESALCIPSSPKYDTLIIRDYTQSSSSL
The test is described as follows: positive modulation of mGluR5, calcium based FLIPR assay. The note with it: HEK 293 cell line expressing human recombinant mGluR5; EC50 of the modulation from peak Ca fluorescence signal after glutamate at approx. 5% basal stimulation. As to the method: The positive modulation of mGluR5 is measured in a HEK 293 cell line expressing human recombinant mGluR5 and is detected with calcium based FLIPR assay. The cells are cultured with DMEM supplemented with 10% FCS, 2 μg/mL tetracycline, 100 μg/mL hygromycin and 500 μg/mL geneticin. The cell culture media is exchanged for tetracycline-free cell culture media 3-7 days before the assay. One day before the assay the cell culture medium is exchanged to DMEM without glutamine and phenol red and supplemented with 10% FCS, 100 μg/mL hygromycin and 500 μg/mL geneticin. On the assay day, the medium of the subconfluent cultures is removed and the cells are detached by addition of 2.5 ml EDTA (0.02%) per 175 cm2 culture flask for 1 minute. The cells are resuspend in Ringer solution (140 mM NaCl, 5 mM KCl, 2.5 mM CaCl2, 1.5 mM MgCl2, 5 mM Glucose, 10 mM Hepes; adjusted to pH 7.4 with NaOH), pooled and Ringer solution added to adjust the volume to 50 mL. The cell suspension is centrifuged for […] at 1500 U/min (425 g). The supernatant is removed and the cells washed a second time with 50 ml fresh Ringer solution and centrifuged again as before. The supernatant is again removed and the pellet resuspended in Ringer solution to 1,000,000 cells/ml (1×10^6 cells/mL). The cells are plated onto BD BioCoat Poly-D-Lysine 384 well plates (20.000 cells/well; 20 μl/well). The lid covered plates are then incubated until use at 37° C./10% CO2. For dye loading, 20 μl of Calcium-4 assay kit solution (prepared according to the manufacturer's description in Ringer solution) are added to the cells and the plates are incubated for […] 37° C. and then […] at room temperature.
Controls, Compound Dilution and Assay Execution:
Each assay plate contained wells with “high” and “low” controls:
Low controls 1% DMSO/ringer solution+basal glutamate activation (defined as 100% CTL).
High controls 10 μM CDPPB+basal glutamate activation (defined as 200% CTL).
Test compounds are dissolved and diluted in DMSO to 100-fold the desired concentrations. In a second step, the compounds are diluted in Ringer solution such that the compounds are 4-fold more concentrated than the desired final assay concentration. The final DMSO concentration was 1%.
20 μl of each compound solution are then transferred to the assay plate and the Ca2+ kinetic is measured to determine any intrinsic compound activity. After 5 mM incubation in the FLIPR device, the second stimulation with 20 μl of glutamate in Ringer solution (glutamate concentration adjusted to approximately 5% basal stimulation of the maximal possible glutamate effect) is added and the kinetic Ca2+ response of the wells was measured for the modulation effect.
The peak height of the Ca release related fluorescence signal (9-66) is used for the EC50. The EC50 of the modulation is calculated over a nonlinear regression with GraphPad Prism (Table 1).
With `CCc1cc(-c2ccc(F)cc2)nn1CC(=O)N1CCc2nc(C)sc2CC1` [Example 7.02.029], the EC50 (usually the concentration at which the effect is half-maximal) worked out at 329 nM.
Next, `CCc1cc(-c2cccc(C#N)c2)nn1CC(=O)N1CCc2nc(N)sc2CC1` [Example 7.02.185]: 258 nM.
In the case of `Cc1nc2c(s1)CN(C(=O)Cn1nc(-c3ccc(F)cc3)cc1-c1ccc(F)cc1)C2` [Example 7.02.011], the EC50 stood at 37 nM.
Next, `Cc1nc2c(s1)CCN(C(=O)Cn1nc(-c3ccc(C)c(C)c3)cc1-c1ccccc1)CC2` [Example 7.02.086]: 11 nM; `O=C(Cn1nc(-c2ccccc2)cc1-c1ccccc1)N1CCN(c2noc3ccccc23)CC1` [Example 7.01.016]: 143 nM; `Cc1cc(C2=CCN(C(=O)Cn3nc(-c4ccc(F)c(C)c4)cc3-c3ccccc3)CC2)ncn1` [Example 7.02.096]: 10 nM.
The result for `CCc1cc(-c2ccc(F)c(C)c2)nn1CC(=O)N1CCc2nc(OC)sc2CC1` [Example 7.01.054] reads 53 nM.
The result for `Cc1cc(-c2cc(-c3ccccc3)n(CC(=O)N3CC=C(c4ncc(F)cn4)CC3)n2)ccc1F` [Example 7.02.099] reads 18 nM.
`Cc1cnc(C2CCN(C(=O)Cn3nc(-c4ccc(F)c(C)c4)cc3-c3ccccc3)CC2)s1` [Example 7.02.140]: the EC50 stood at 51 nM.
As to `O=C(Cn1nc(-c2ccccc2)cc1-c1ccccc1)N1CCc2nc(-c3ccccc3)ncc2C1` [Example 7.02.005], the concentration giving a half-maximal response (EC50) stood at 1260 nM.
Next, `Cc1cnc(C2=CCN(C(=O)Cn3nc(-c4ccc(F)c(C)c4)cc3-c3ccccc3)CC2)s1` [Example 7.02.134]: 15 nM; `Cc1nc2c(s1)CCN(C(=O)Cn1nc(-c3ccc(OC(F)F)cc3)cc1-c1ccccc1)CC2` [Example 7.02.221]: 4 nM.
Next, `Cc1cc(-c2cc(-c3ccccc3)n(CC(=O)N3CCc4cn[nH]c4CC3)n2)ccc1F` [Example 7.01.052]: 31 nM.
Next, `CCc1cc(-c2cccc(Cl)c2)nn1CC(=O)N1CCC(c2ncc(C)o2)CC1` [Example 7.02.108]: 127 nM.
For `Cc1coc(N2CCN(C(=O)Cn3nc(-c4ccc(F)c(C)c4)cc3C)CC2)n1` [Example 7.02.168], the EC50 stood at 604 nM.
The result for `Cc1nc2c(s1)CCN(C(=O)Cn1nc(-c3cccc(Cl)c3)cc1-c1ccccc1)CC2` [Example 7.02.145] reads 15 nM.
The result for `COc1ccc(-c2cc(C(C)C)n(CC(=O)N3CCc4nc(N)sc4CC3)n2)cc1C` [Example 7.02.046] reads 881 nM; that for `Cc1csc(N2CCN(C(=O)Cn3nc(-c4ccc(F)c(C)c4)cc3-c3ccccc3)CC2)n1` [Example 7.02.159], 44 nM; that for `O=C(Cn1nc(-c2ccccc2)cc1-c1ccccc1)N1CCc2c(F)ccc(F)c2C1` [Example 7.01.024], 1160 nM.
Turning to `Nc1nnc(C2CCN(C(=O)Cn3nc(-c4ccccc4)cc3-c3ccccc3)CC2)o1` [Example 7.01.033], the EC50 was found to be 1530 nM.
For the compound `CCc1cc(-c2ccc(F)c(C)c2)nn1CC(=O)N1Cc2cccnc2C1` [Example 7.02.230], the EC50 was 878 nM.
Consider `O=C(Cn1nc(-c2ccccc2)cc1-c1ccccc1)N1CCC(c2nnc(-c3ccc(F)cc3)o2)CC1` [Example 7.01.047], for which the EC50 was 789 nM.
On to `Cc1cc(-c2cc(-c3ccccc3)n(CC(=O)N3CCc4ccccc4CC3)n2)ccc1F` [Example 7.01.090], for which the EC50 is 240 nM.
The result for `CCc1cc(-c2ccc(F)c(C)c2)nn1CC(=O)N1CCC(c2nnc(C)o2)CC1` [Example 7.02.157] reads 430 nM.
Next, `CCc1cc(-c2ccc(C)c(F)c2)nn1CC(=O)N1Cc2nc(C)sc2C1` [Example 7.02.239]: 842 nM; `Cc1nc2c(s1)CCN(C(=O)Cn1nc(-c3ccc(F)cc3)cc1C(C)C)CC2` [Example 7.02.072]: 251 nM; `Cc1cc(-c2cc(CC(C)C)n(CC(=O)N3CCc4nc(N)sc4CC3)n2)ccc1F` [Example 7.02.120]: 21 nM.
For the compound `CCc1cc(-c2cccc(Cl)c2)nn1CC(=O)N1Cc2nc(C)sc2C1` [Example 7.02.111], the EC50 came to 334 nM.
The result for `COCc1cc(-c2ccc(F)c(C)c2)nn1CC(=O)N1Cc2nc(C)sc2C1` [Example 7.01.058] reads 279 nM.
The result for `Cc1nc2c(s1)CN(C(=O)Cn1nc(-c3ccc(F)c(C)c3)cc1-c1ccccc1)C2` [Example 7.02.020] reads 21 nM.
Next, `COc1ccc2c(c1)CCN(C(=O)Cn1nc(-c3ccccc3)cc1-c1ccccc1)CC2` [Example 7.01.008]: 1180 nM.
Regarding `CCc1cccc(-c2cc(CC)n(CC(=O)N3CCc4nc(C)sc4CC3)n2)c1` [Example 7.02.129], the EC50 was 156 nM.
The result for `Nc1nc2c(s1)CCN(C(=O)Cn1nc(-c3ccc(F)cn3)cc1-c1ccc(F)cc1)CC2` [Example 7.02.060] reads 760 nM.
Next, `CCCc1cc(-c2ccc(F)c(C)c2)nn1CC(=O)N1Cc2nc(C)oc2C1` [Example 7.02.214]: 11 nM; `CCc1nc2c(o1)CN(C(=O)Cn1nc(-c3ccc(F)c(C)c3)cc1-c1ccccc1)C2` [Example 7.02.255]: 7 nM; `CCc1cc(-c2cccc(C#N)c2)nn1CC(=O)N1Cc2nc(C)sc2C1` [Example 7.02.186]: 326 nM.
Next, `Cc1nnc(N2CCN(C(=O)Cn3nc(-c4cccc(C#N)c4)cc3-c3ccccc3)CC2)o1` [Example 7.02.192]: 82 nM; `COc1nc2c(s1)CCN(C(=O)Cn1nc(-c3ccc(F)c(C)c3)cc1-c1ccccc1)CC2` [Example 7.02.161]: 35 nM.
For the compound `COc1cc(-c2cc(-c3ccccc3)n(CC(=O)N3CCc4nc(N)sc4CC3)n2)ccc1F` [Example 7.02.149], the concentration giving a half-maximal response (EC50) amounted to 42 nM.
The result for `Cc1nc2c(s1)CN(C(=O)Cn1nc(-c3ccc(F)c(C)c3)cc1C)C2` [Example 7.01.062] reads 242 nM; that for `Cc1nc2c(s1)CCN(C(=O)Cn1nc(-c3ccc(F)c(C)c3)cc1C1CCCCC1)CC2` [Example 7.02.048], 31 nM.
The result for `Cc1cccc(-c2cc(-c3ccccc3)n(CC(=O)N3Cc4nc(C)sc4C3)n2)c1` [Example 7.02.200] reads 24 nM.
On to `Cc1nnc(N2CCN(C(=O)Cn3nc(-c4ccc(C)c(F)c4)cc3-c3ccccc3)CC2)o1` [Example 7.02.250], for which the EC50 came out at 65 nM.
Next, `CCCc1cc(-c2ccc(F)c(C)n2)nn1CC(=O)N1CCc2nc(C)sc2CC1` [Example 7.02.247]: 172 nM; `Cc1nc2c(s1)CCN(C(=O)Cn1nc(-c3cccc(C#N)c3)cc1-c1ccccc1)CC2` [Example 7.02.189]: 15 nM.
Next, `O=C(Cn1nc(-c2ccccc2)cc1-c1ccccc1)N1CCN(Cc2ccccc2)C(=O)C1` [Example 7.02.063]: 1730 nM; `COC(=O)c1ccc2c(c1)CCN(C(=O)Cn1nc(-c3ccccc3)cc1-c1ccccc1)C2` [Example 7.01.022]: 511 nM; `CCCc1cc(-c2ccc(F)c(C)c2)nn1CC(=O)N1CC=C(c2ncc(OC)cn2)CC1` [Example 7.02.071]: 71 nM.
For `CCc1cc(-c2cccc(C#N)c2)nn1CC(=O)N1CCc2nc(C)sc2CC1` [Example 7.02.184], the half-maximal effective concentration (EC50) came out at 132 nM.
As for `CCc1cc(-c2cccc(C)c2)nn1CC(=O)N1CCc2nc(C)sc2CC1` [Example 7.02.084], the concentration for a half-maximal effect (EC50) worked out at 73 nM.
The result for `Cc1nc2c(s1)CN(C(=O)Cn1nc(-c3ccc(C(F)F)cc3)cc1-c1ccccc1)C2` [Example 7.02.260] reads 26 nM; that for `Cc1nc2c(s1)CN(C(=O)Cn1nc(-c3ccc(OC(F)F)cc3)cc1-c1ccccc1)C2` [Example 7.02.222], 23 nM; that for `COc1cc(C2=CCN(C(=O)Cn3nc(-c4cccc(C)c4)cc3-c3ccccc3)CC2)ncn1` [Example 7.02.202], 19 nM.
With `COc1cccc2c1CCN(C(=O)Cn1nc(-c3ccccc3)cc1-c1ccccc1)C2` [Example 7.01.015], the EC50 stood at 1810 nM.
The result for `Cc1nc2c(s1)CN(C(=O)Cn1nc(-c3ccc(C)c(F)c3)cc1-c1ccccc1)C2` [Example 7.02.252] reads 69 nM.
